Source: patent US8466311B2, “Neuroprotective compositions and methods” (Sanford-Burnham Medical Research Institute, priority 2006, dated 2013)

Tests used:
[1] = Translocation of CA into the brain (HPLC of serum and brain); format: in vivo, mouse
Method: Translocation of CA into the brain detected by high-performance liquid chromatography (HPLC). For experiments testing penetration of drug into the CNS, we used adult male C57BL/6 mice (Charles River) weighing 22-26 g. The mice were kept in cages with ad libitum access to food and water under standardized housing conditions (natural light-dark cycle, temperature of 23±3° C., relative humidity of 50±10%). After a seven-day adaptation to laboratory conditions, the animals were randomly assigned to each experimental group (n=10 mice each). Four C57 BL/6 mice, fastened for 18 h, were each orally administered 3 mg of CA in 0.3 ml olive oil. One and three h after the injection, under ether anesthesia, serum and brain were isolated for chemical analysis. CA was extracted from tissue with acetonitrile and ethanol. CA levels were obtained by HPLC (column, μBondasphere C18; temperature, 40 C; HPLC system, Shimadzu [Kyoto, Japan] LC10Avp; detector, UV 230 nm; running solvent 2% acetic acid or acetonitrile, 30% B isocratic at 1 ml/min).
CA accumulation in the brain. For the development of CA as a protective agent against neurodegenerative diseases, penetration into the brain is an essential requirement. To examine this aspect, we administered CA orally to mice (3 mg per 25 g mouse) and measured the level of CA (catechol-form) in serum and brain parenchyma by HPLC.

Nrf2 = test: Intracellular distribution of Nrf2 protein in COS7 cells (immunofluorescence); format: cell-based; details: 10 μM CA
Method: Immunocytochemistry. Cultures were fixed with 3% paraformaldehyde at room temperature for 20 min. After three washes in PBS, the cells were permeabilized with 0.3% Triton X-100 for 5 min. After three additional washes in PBS, the cells were incubated at 4° C. overnight with primary antibodies. They were then washed three times in PBS containing 0.2% Tween 20 (PBS-T), and next incubated with secondary antibodies for 1 h at room temperature. Thereafter, the cells were again washed, and their nuclei stained with Hoechst 33,258 (5 μg/ml) or with DAPI (1 μg/ml) for 5 min. Stained preparations were mounted and examined by epifluorescence microscopy. The following primary antibodies were used: anti-Nrf2 antibody, anti-MAP2 and anti-NeuN antibodies to identify neurons (dendrites and nuclei, respectively), and anti-S100β antibody to identify astrocytes. As secondary antibodies, we used FITC-conjugated anti-mouse IgG, rhodamine-conjugated anti-mouse IgG, or rhodamine-conjugated streptavidin.
After binding of the electrophilic quinone-form of CA to Keap1 protein, activation of the Keap1/Nrf2 pathway requires nuclear translocation of Nrf2 (Talalay, Biofactors 12:5-11, 2000; Padmanabham et al., Mol. Cell 21:689-700, 2006; Itoh et al., Free Radic. Biol. Med. 36:1208-1213, 2004). Thus, we next examined the intracellular distribution of Nrf2 protein in COS7 cells by immunofluorescence.

ETS-binding site = test: Enhancer element luciferase reporter p3xETSluc; format: cell-based; details: NEPP11 2 μM
Method: Because the E1 and E2 regions also contain other enhancer elements, we tested the effects of NEPP11 (2 μM) on the expression of luciferase activity derived from these elements, including the cAMP-responsive element (CRE; p3xCREluc), AP-1 binding site (p3xAP1luc), NF-κB binding site (p3xNF-κBluc), NFAT-binding site (p3xNFATluc), ETS-binding site (p3xETSluc), and MEF2-binding site (p3xMEF2luc).

HO-1 protein [2] = test: HO-1 induction in mouse brain after i.p. injection; format: in vivo; details: NEPP11 i.p. 12 h before killing
Method: To test the hypothesis that NEPP protection against brain ischemia is associated with HO-1 expression, we examined HO-1 induction by Western blotting and immunostaining. NEPP11 or vehicle was injected intraperitoneally (i.p.) 12 h before the animals were killed. Brain lysates (10 μg per lane) were extracted and subjected to Western blotting with anti-HO-1 and anti-β-actin antibody. For immunostaining, coronal sections of mouse brain were stained with anti-MAP-2 and anti-HO-1 antibodies.

HO-1 protein [3] = test: Induction of HO-1 protein in primary cortical cultures; format: cell-based, rat
Method: Immunoprecipitation, western blots, and immunofluorescence. These assays were performed as described (Gu et al., Science 297:1186-1190, 2002) by using the following antibodies: anti-HO-1 (SPA895, 1:1000, Santa Cruz Biotechnology), anti-Keap1 (1:100, Santa Cruz Biotechnology), or anti-actin (1:5,000, Oncogene Research Products, San Diego).
We reasoned that if, unlike other electrophiles (Kraft et al., J. Neurosci. 24:1101-1112, 2004), NEPPs accumulate predominantly in neurons, then HO-1 might be induced preferentially in this cell type. To check this possibility, we performed immunofluorescence studies with anti-HO-1 antibody after exposure to a potent NEPP compound. Cortical cultures (E17 and DIV14-21) treated with vehicle or NEPP11 (0.7 μM) were stained with anti-MAP-2 and anti-HO-1 and with Hoechst dye. In control cultures, non-neuronal cells expressed relatively more HO-1 at baseline than did neurons. […] To examine induction of HO-1 protein after exposure to NEPP, lysates (10 μg per lane) of primary cortical cultures treated with vehicle or NEPP11 for 24 h were probed with anti-HO-1 or anti-β-actin in immunoblots. […] The fold induction of HO-1 by NEPP11 was 2.2±0.25 (for 0.5 μM NEPP11) and 3.5±0.25 (for 1.0 μM NEPP11 as assessed by densitometry.
Cell Cultures, Transfection, and Glutathione (GSH) Measurement.

HO-1 promoter = HO-1 promoter luciferase reporter in cortical cultures; format: cell-based, rat
Method: Next, transcriptional activation of the HO-1 promoter by NEPP was examined by reporter gene assays in primary neurons. Cortical cultures were transfected with reporter cDNAs (1 μg per well), and 0.7 μM NEPP11 was added to the cultures. After a 24 h incubation, cell lysates were subjected to luciferase reporter assays. […] If the Keap1/Nrf2 pathway, indeed, mediates activation of the HO-1 promoter by NEPP11, mutant Nrf2 protein should inhibit this activation. […] Moreover, the selective activation in neurons may explain the relatively small amplitude of total HO-1 activation seen in the mixed neuronal/glial culture system in which glia predominate.

SMILES	brain permeability ([1]; mouse, in vivo)	time to reach significant levels in the brain ([1]; oral, 3 mg per 25 g mouse)	localization of Nrf2 protein (Nrf2)	activity of p3xETSluc (ETS-binding site)	level of HO-1 protein in the brain (HO-1 protein [2])	fold induction of HO-1 (densitometry) (HO-1 protein [3]; 0.5 μM NEPP11, 24 h)	fold induction of HO-1 (densitometry) (HO-1 protein [3]; 1.0 μM NEPP11, 24 h)	HO-1 immunofluorescence (HO-1 protein [3]; NEPP11 0.7 μM, E17 DIV14-21)	activity of the HO-1 promoter (HO-1 promoter; NEPP11 0.7 μM, 24 h)	HO-1 promoter activation with cotransfection of pNrf2(S40A)-GFP (HO-1 promoter; NEPP11, pNrf-GFP did not affect activation)
CC(C)c1cc2c(c(O)c1O)[C@@]1(C(=O)O)CCCC(C)(C)[C@@H]1CC2 [CA, carnosic acid]	brain permeable	≤ 1 h	translocated into the nucleus							
COC(=O)CCCCC/C=C1/C(=O)C=C[C@H]1CCCCCCc1ccc(C)cc1 [NEPP11]				slightly depressed	increased	2.2±0.25 fold	3.5±0.25 fold	increased mainly in neurons	significantly increased	almost completely knocked down
